# According to patent US12036208B2, “Methods for treating neurodegenerative disorders” (Alzheon, Inc., priority 2017, dated 2024):
# Molecular target: T1, recombinant human β-Amyloid Peptide (1-42) (Homo sapiens, UniProt P05067)
# T1 construct: recombinant human β-Amyloid Peptide (1-42) from BioLegend; purchased BioLegend 843801
# Experiment: Binding assay: mass spectrometry (Q-TOF) of compounds binding to Aβ1-42
# Conditions: 22 pmol/μL β-Amyloid Peptide (1-42), 1100 pmol/μL test compound; direct infusion Q-TOF MS at room temperature
# Source text: The activity of the compounds utilized in the methods described herein can be assayed by measuring the binding of those compounds to β-amyloid. Data acquisition can be performed using a Waters Synapt G2-S quadrupole time of flight mass spectrometer (Q-TOF MS) with traveling wave ion mobility (Waters Corp. 34 Maple Street Milford, MA 01757). The data can be acquired using the systems sensitivity mode to allow for the detection of the less abundant oligomers. Samples can be infused at room temperature due to lower solubility of the peptide at body temperature ([…]).
# One mg of compound can be reconstituted in 1 mL of Fisher Optima LC/MS grade water (cat: W6-1) and vortexed vigorously for 2 minutes until completely dissolved. The sample can be then diluted to create a 220 pmol/μL, 2200 pmol/μL, and 22,000 pmol/μL solutions to perform binding experiments to Aβ42 with 10-, 100-, and 1000-fold molar excess of tested compound.
# One mg of recombinant human β-Amyloid Peptide (1-42) from BioLegend can be reconstituted in 200 μL of Fisher Optima LC/MS grade water and vortexed vigorously to solubilize the peptide creating a 5 mg/mL solution. Samples can be then diluted to a final concentration of 44 pmol/μL prior to mixing (1:1) with test compound solution. Final concentrations were 22 pmol/μL for human β-Amyloid Peptide (1-42) and 1100 pmol/μL for test compounds.
# The data acquisition was performed using a Waters time of flight mass spectrometer (Q-TOF Micro). The data was acquired using the scanning mode to allow for the detection of the peptide. Samples were infused at room temperature. The mass spectrometer conditions were maintained throughout the study to ensure consistency of the data. The Waters Q-TOF conditions were as follows:
# Samples were directly infused into the mass spectrometer at a flow rate of 20 μL/min using in-build Syringe Pump and Hamilton 1 mL Syringe and the acquisition time was kept 2 minutes.
# T1 sequence (P05067 672-713 limits assumed): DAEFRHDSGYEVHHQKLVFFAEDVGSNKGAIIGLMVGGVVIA
row,Number of Molecules Bound to Aβ1-42 (# of Molecules Bound to Aβ),SMILES
1,3,O=S(=O)(O)c1nnc[nH]1 [Compound 117]
2,1,Cn1cc(S(=O)(=O)O)cn1 [Compound 118]
3,0,Cn1cnnc1S(=O)(=O)O [Compound 119]
4,8,C[n+]1cccc(S(=O)(=O)[O-])c1 [Compound 120]
5,0,Nc1cccc(S(=O)(=O)O)c1 [Compound 121]
6,0,Nc1ccc(S(=O)(=O)O)cc1 [Compound 122]
7,3,Nc1ncc(S(=O)(=O)O)s1 [Compound 124]
8,0,NCc1ccc(S(=O)(=O)O)cc1 [Compound 125]
9,1,Nc1ccc(N)c(S(=O)(=O)O)c1 [Compound 126]
10,0,Nc1ccc(S(=O)(=O)O)c(N)c1 [Compound 127]
11,0,Nc1cc(S(=O)(=O)O)ccc1O [Compound 128]
12,0,O=S(=O)(O)c1ccc2[nH]cnc2c1 [Compound 130]
13,0,O=S(=O)(O)c1ccc2c(c1)NCC2 [Compound 131]
14,0,Cn1c(S(=O)(=O)O)nc2ccccc21 [Compound 133]
15,2,Nc1ncnc2[nH]c(S(=O)(=O)O)nc12 [Compound 134]
16,0,Nc1cccc2ccc(S(=O)(=O)O)cc12 [Compound 136]
17,0,Nc1ccc(S(=O)(=O)O)c2ccccc12 [Compound 137]
18,0,Nc1cccc2c(S(=O)(=O)O)cccc12 [Compound 138]
19,0,Nc1cccc2cc(S(=O)(=O)O)ccc12 [Compound 139]
20,0,Nc1ccc2c(S(=O)(=O)O)cccc2c1 [Compound 140]
21,0,O=C1Nc2ccc(S(=O)(=O)O)cc2CO1 [Compound 141]
22,2,Nc1nc2ccc(S(=O)(=O)O)cc2s1 [Compound 142]

row,Number of Molecules Bound to Aβ1-42 (# of Molecules Bound to Aβ),SMILES
1,0,Nc1cc(S(=O)(=O)O)cc(C(=O)O)c1O [Compound 143]
2,0,Nc1ccc2c(S(=O)(=O)O)cccc2c1N [Compound 144]
3,0,CCCn1c(S(=O)(=O)O)nc2ccccc21 [Compound 145]
4,5,Cc1cc(C)[n+]2cc(S(=O)(=O)[O-])sc2n1 [Compound 148]
5,0,Nc1ccc2ccc(S(=O)(=O)[O-])cc2c1.[Na+] [Compound 149]
6,0,O=S(=O)(O)c1ccc(Nc2ccccc2)cc1 [Compound 150]
7,0,COC(=O)c1cc(OC)c(S(=O)(=O)O)s1 [Compound 151]
8,1,Cc1cc(C)n(-c2ccc(S(=O)(=O)O)cc2)n1 [Compound 152]
9,5,CC[n+]1ccc(-c2cccc(S(=O)(=O)[O-])c2)o1 [Compound 153]
10,1,Cc1cc(=O)n(-c2cccc(S(=O)(=O)O)c2)[nH]1 [Compound 154]
11,1,Nc1ccc(Nc2ccc(N)cc2S(=O)(=O)O)cc1 [Compound 160]
12,0,O=C(O)c1cc(=O)n(-c2ccc(S(=O)(=O)O)cc2)[nH]1 [Compound 161]
13,0,CCOC(=O)c1cnn(-c2ccc(S(=O)(=O)O)cc2)c1N [Compound 163]
14,0,Cc1ccc2nc(-c3ccc(N)cc3)sc2c1S(=O)(=O)O [Compound 164]
15,1,Cc1oc2ccc(-c3ccccc3)cc2[n+]1CCCS(=O)(=O)[O-] [Compound 165]
16,2,Nc1ccc(-c2ccc(N)cc2S(=O)(=O)O)c(S(=O)(=O)O)c1 [Compound 166]
17,0,Nc1cc(S(=O)(=O)[O-])c2cccc(S(=O)(=O)[O-])c2c1.[Na+].[Na+] [Compound 167]
18,0,NC1=NN(c2ccc(Oc3ccccc3)c(S(=O)(=O)O)c2)C(=O)C1 [Compound 168]
19,6,Nc1ccc(S(=O)(=O)O)cn1 [Compound 170]
20,7,Nc1ccncc1S(=O)(=O)O [Compound 171]
21,0,Nc1nc2cc(S(=O)(=O)O)cc(N)c2o1 [Compound 172]

row,SMILES,Number of Molecules Bound to Aβ1-42 (# of Molecules Bound to Aβ)
1,Nc1ccc2cc(S(=O)(=O)O)ccc2c1 [Compound 135],0
2,Nc1ccc2cc(S(=O)(=O)O)ccc2c1.O [Compound 146],0
3,CN(C)C(=O)[n+]1ccc(CCS(=O)(=O)[O-])cc1 [Compound 158],0
